Measurements from PMC3651166, “Differential Cytotoxic Activity of a Novel Palladium-Based Compound on Prostate Cell Lines, Primary Prostate Epithelial Cells and Prostate Stem Cells” (PLoS ONE, 2013).
Where two headings read alike, the source gives them in different places.

What was measured:
Format in all cases: cell-based, human
[1] = tested on: primary prostate epithelial cells; test: Flow cytometry cell cycle analysis, primary cells; conditions: primary cells
Protocol: Following drug treatment, floating cells in the media were pooled with adherent cells, which were collected by trypsinisation. Following centrifugation cells were resuspended in 0.5 ml PBS. Cells were fixed in 2 ml ice cold 70% ethanol, which was added in a dropwise fashion while vortexing. Cells were incubated on ice for 30 min then washed in 5 ml PBS and resuspended in 0.4 ml PBS. Following storage at 4°C overnight, 50 µl of RNAse (1 mg/ml) and 50 µl of propidium iodide (1 mg/ml) were added to the cells. Following incubation at 37°C for 30 min the cells were analysed for 2N and 4N DNA content on a flow cytometer (Cyan ADP Analyser, Beckman Coulter).

γH2AX nuclear foci = test: γH2AX immunofluorescence, DNA damage in primary cultures; conditions: 48 h
Protocol: γH2AX staining: Cells were seeded onto 8-well collagen I-coated chamber slides. […] After blocking of non-specific binding with 2% BSA in PBS with 1% goat serum for 1 hour at RT, primary antibody (anti-phospho-histone H2A.X (Ser139), clone JBW301, Millipore, Cat no. 05–636) at 1∶1000 dilution was added in 3% BSA in PBS at 4°C overnight followed by three washes in 0.5% BSA in PBS with 0.175% Tween 20. Following incubation with secondary antibody (Goat anti-mouse Alexa Fluor 568, Invitrogen, Cat no. A-11004) at 1∶1000 dilution for 45 min in 3% BSA in PBS and three more washes in the same washing buffer, the slides were mounted using Vectashield with DAPI (Vector Laboratories, Cat no. H-1200). LC3-B staining: Cells were treated as above then fixed with 4% paraformaldehyde, followed by an incubation in 0.3% Triton X-100. After blocking with 10% normal goat serum, cells were incubated in anti-LC3B 1∶200 (Ab51520, abcam) diluted in 0.1% Triton X-100 in PBS. […]
Since the mechanism of action of the Pd complex has not been fully characterized, the DNA-damaging effect was assessed. […] Nuclei with evidence of γH2AX nuclear foci, indicative of DNA damage, were counted on 10 randomly chosen fields at the highest (63x) magnification and the mean number of positively-stained nuclei was calculated. At least 100 cells per well were counted.

[2] = tested on: primary cultures from BPH and Gleason 6/7 cancers; test: MTS assay, primary cultures BPH and Gleason 6/7 together
Description: Primary prostate epithelial cells were isolated from human tissue samples. The samples were collected with ethical permission from York District Hospital (York, UK) and Castle Hill Hospital (Cottingham, UK). Benign prostatic hyperplasia (BPH) and prostate cancer samples were obtained from TURP (transurethral resection of the prostate), radical prostatectomy (laparoscopic and open) and cystectomy operations. All patients gave written consent for their tissue to be used for research and all patient samples were anonymised. Permission was approved by the Local Research Ethical Committees, associated with York District Hospital and Castle Hill Hospital. Permission was administered by the Yorkshire and Humber Research Ethics Committee. […]
This assay was performed for the initial screening of the effect of the Pd complex on the cell lines and the whole cell population of primary cultures. […] Following 2.5 h incubation at 37°C, the absorbance was read at 485 nm using a plate reader (PolarStar Optima, BMG Labtech, UK). Percent viability was calculated using the formula (% Viability = [(Sample Absorbance/Control Absorbance)]×100.

LC3-II = test: Western blotting and immunofluorescence for autophagy, primary cells; conditions: all primary cells
Protocol: γH2AX staining: Cells were seeded onto 8-well collagen I-coated chamber slides. […] After blocking of non-specific binding with 2% BSA in PBS with 1% goat serum for 1 hour at RT, primary antibody (anti-phospho-histone H2A.X (Ser139), clone JBW301, Millipore, Cat no. 05–636) at 1∶1000 dilution was added in 3% BSA in PBS at 4°C overnight followed by three washes in 0.5% BSA in PBS with 0.175% Tween 20. Following incubation with secondary antibody (Goat anti-mouse Alexa Fluor 568, Invitrogen, Cat no. A-11004) at 1∶1000 dilution for 45 min in 3% BSA in PBS and three more washes in the same washing buffer, the slides were mounted using Vectashield with DAPI (Vector Laboratories, Cat no. H-1200). LC3-B staining: Cells were treated as above then fixed with 4% paraformaldehyde, followed by an incubation in 0.3% Triton X-100. After blocking with 10% normal goat serum, cells were incubated in anti-LC3B 1∶200 (Ab51520, abcam) diluted in 0.1% Triton X-100 in PBS. Secondary antibody was Alexa Fluor 568 goat anti-rabbit IgG 1∶1000 (Invitrogen A11011).

BPH primary cells = test: MTS assay, primary cultures from benign prostate hyperplasia
Description: Primary prostate epithelial cells were isolated from human tissue samples. The samples were collected with ethical permission from York District Hospital (York, UK) and Castle Hill Hospital (Cottingham, UK). Benign prostatic hyperplasia (BPH) and prostate cancer samples were obtained from TURP (transurethral resection of the prostate), radical prostatectomy (laparoscopic and open) and cystectomy operations. All patients gave written consent for their tissue to be used for research and all patient samples were anonymised. Permission was approved by the Local Research Ethical Committees, associated with York District Hospital and Castle Hill Hospital. Permission was administered by the Yorkshire and Humber Research Ethics Committee.
Prostate epithelial cells were cultured as previously described in stem cell media (SCM) consisting of keratinocyte serum-free media (KSFM) with bovine pituitary extract (BPE) and epidermal growth factor (EGF), glutamine, stem cell factor (SCF), granulocyte macrophage colony stimulating factor (GM-CSF), leukaemia inhibitory factor (LIF) and cholera toxin. Cells were grown with STO feeder cells (irradiated at 60 Gy) on collagen I-coated plates.
This assay was performed for the initial screening of the effect of the Pd complex on the cell lines and the whole cell population of primary cultures. The CellTiter 96® Aqueous One Solution Cell Proliferation Assay kit (G3580, Promega, Madison, WI, USA) was used and the manufacturer’s instructions were followed. Briefly, after treating cells that were seeded at a density of 5,000 cells per well in a 96-well plate in triplicate for a desired period (24 h, 48 h, 72 h), 20 µL of reagent was added to each well. Following 2.5 h incubation at 37°C, the absorbance was read at 485 nm using a plate reader (PolarStar Optima, BMG Labtech, UK). Percent viability was calculated using the formula (% Viability = [(Sample Absorbance/Control Absorbance)]×100.
MTS and ATP assays were performed in triplicate and data presented as the mean +/− standard deviation. IC50 values (Table 3 and Table 4) were calculated from graphs of transformed data following application of the nonlinear regression (curve fit) that represents the log(inhibitor) ‘v’ normalized response (GraphPad Prism software) (Supplementary Figures S1 and S2). For significance calculations, the Wilcoxon rank sum test was used (Sigmaplot). Flow cytometry analysis was carried out in triplicate and results are presented as an average with error bars indicating the standard error.

## [PdCl(terpy)](sac)⋅2 H2O [Pd complex]
[1]
  cells with more than 4N DNA content: increase in cells with more than 4N DNA content
  sub-G1 content: clear dose response showing increase in sub-G1 content
γH2AX nuclear foci; 3.12 µM
  level of DNA damage (γH2AX nuclear foci): did not induce a significant level of DNA damage
γH2AX nuclear foci; etoposide and Pd complex at the same dose, primary cultures from prostate carcinoma
  level of DNA damage (γH2AX nuclear foci): same level of DNA damage
[2]; BPH and Gleason 6/7 samples, 72 h
  concentrations having a significant anti-growth effect on all samples: higher than 6.25
[2]; primary cultures, previous experiments (MTS)
  lowest concentration inducing a significant anti-growth effect: 6.25 µM
LC3-II
  LC3-II (autophagy): clear increase in LC3-II
BPH primary cells; BPH primary cells, sample 1608, 72 h, read-out: IC50
  IC50: 5.97 µM
BPH primary cells; BPH primary cells, sample 3108, 72 h, read-out: IC50
  IC50: 7.33 µM
BPH primary cells; BPH primary cells, sample 7611, 72 h, read-out: IC50
  IC50: 6.97 µM
BPH primary cells; BPH primary cells, sample 8109, 72 h, read-out: IC50
  IC50: 14.4 µM
BPH primary cells; average of BPH primary cells, 72 h, read-out: IC50 AVERAGE
  IC50: 8.67 µM
BPH primary cells; benign samples, both at 25 µM, 72 h, median values
  reduction of cell viability compared to etoposide: at least 5.6 fold
